We go through 8 compounds from patent publication US9340590B2 (priority 2011, dated 2016).

Holding throughout (assay): cell-based
In one assay the target is hNav1.5 (Homo sapiens, UniProt Q14524). Particulars: IonWorks Quattro, use-dependent block, hNav1.5; read-out: IWQ Use Nav1.5. Background: In patch-clamp work, channel activity is measured electrically.
The target of a further assay is hNav1.3 (Homo sapiens, UniProt Q9NY46). The conditions noted are these: IonWorks Quattro, use-dependent block, hNav1.3; read-out: IWQ Use Nav1.3.
The next assay deals with hNav1.7 (Homo sapiens, UniProt Q15858). The format is cell-based. The conditions noted are these: IonWorks Quattro, use-dependent block, hNav1.7; read-out: IWQ Use Nav1.7.

Positions of bridges follow the written chain, without caps; N, C: chain ends. Non-standard residues stand in square brackets, D forms with d. Residues, ends and D or L forms follow the SMILES beside them. 1Nal = N[C@@H](Cc1cccc2ccccc12)C(=O)O

Chain of hNav1.7 (Q15858 whole entry, looked up): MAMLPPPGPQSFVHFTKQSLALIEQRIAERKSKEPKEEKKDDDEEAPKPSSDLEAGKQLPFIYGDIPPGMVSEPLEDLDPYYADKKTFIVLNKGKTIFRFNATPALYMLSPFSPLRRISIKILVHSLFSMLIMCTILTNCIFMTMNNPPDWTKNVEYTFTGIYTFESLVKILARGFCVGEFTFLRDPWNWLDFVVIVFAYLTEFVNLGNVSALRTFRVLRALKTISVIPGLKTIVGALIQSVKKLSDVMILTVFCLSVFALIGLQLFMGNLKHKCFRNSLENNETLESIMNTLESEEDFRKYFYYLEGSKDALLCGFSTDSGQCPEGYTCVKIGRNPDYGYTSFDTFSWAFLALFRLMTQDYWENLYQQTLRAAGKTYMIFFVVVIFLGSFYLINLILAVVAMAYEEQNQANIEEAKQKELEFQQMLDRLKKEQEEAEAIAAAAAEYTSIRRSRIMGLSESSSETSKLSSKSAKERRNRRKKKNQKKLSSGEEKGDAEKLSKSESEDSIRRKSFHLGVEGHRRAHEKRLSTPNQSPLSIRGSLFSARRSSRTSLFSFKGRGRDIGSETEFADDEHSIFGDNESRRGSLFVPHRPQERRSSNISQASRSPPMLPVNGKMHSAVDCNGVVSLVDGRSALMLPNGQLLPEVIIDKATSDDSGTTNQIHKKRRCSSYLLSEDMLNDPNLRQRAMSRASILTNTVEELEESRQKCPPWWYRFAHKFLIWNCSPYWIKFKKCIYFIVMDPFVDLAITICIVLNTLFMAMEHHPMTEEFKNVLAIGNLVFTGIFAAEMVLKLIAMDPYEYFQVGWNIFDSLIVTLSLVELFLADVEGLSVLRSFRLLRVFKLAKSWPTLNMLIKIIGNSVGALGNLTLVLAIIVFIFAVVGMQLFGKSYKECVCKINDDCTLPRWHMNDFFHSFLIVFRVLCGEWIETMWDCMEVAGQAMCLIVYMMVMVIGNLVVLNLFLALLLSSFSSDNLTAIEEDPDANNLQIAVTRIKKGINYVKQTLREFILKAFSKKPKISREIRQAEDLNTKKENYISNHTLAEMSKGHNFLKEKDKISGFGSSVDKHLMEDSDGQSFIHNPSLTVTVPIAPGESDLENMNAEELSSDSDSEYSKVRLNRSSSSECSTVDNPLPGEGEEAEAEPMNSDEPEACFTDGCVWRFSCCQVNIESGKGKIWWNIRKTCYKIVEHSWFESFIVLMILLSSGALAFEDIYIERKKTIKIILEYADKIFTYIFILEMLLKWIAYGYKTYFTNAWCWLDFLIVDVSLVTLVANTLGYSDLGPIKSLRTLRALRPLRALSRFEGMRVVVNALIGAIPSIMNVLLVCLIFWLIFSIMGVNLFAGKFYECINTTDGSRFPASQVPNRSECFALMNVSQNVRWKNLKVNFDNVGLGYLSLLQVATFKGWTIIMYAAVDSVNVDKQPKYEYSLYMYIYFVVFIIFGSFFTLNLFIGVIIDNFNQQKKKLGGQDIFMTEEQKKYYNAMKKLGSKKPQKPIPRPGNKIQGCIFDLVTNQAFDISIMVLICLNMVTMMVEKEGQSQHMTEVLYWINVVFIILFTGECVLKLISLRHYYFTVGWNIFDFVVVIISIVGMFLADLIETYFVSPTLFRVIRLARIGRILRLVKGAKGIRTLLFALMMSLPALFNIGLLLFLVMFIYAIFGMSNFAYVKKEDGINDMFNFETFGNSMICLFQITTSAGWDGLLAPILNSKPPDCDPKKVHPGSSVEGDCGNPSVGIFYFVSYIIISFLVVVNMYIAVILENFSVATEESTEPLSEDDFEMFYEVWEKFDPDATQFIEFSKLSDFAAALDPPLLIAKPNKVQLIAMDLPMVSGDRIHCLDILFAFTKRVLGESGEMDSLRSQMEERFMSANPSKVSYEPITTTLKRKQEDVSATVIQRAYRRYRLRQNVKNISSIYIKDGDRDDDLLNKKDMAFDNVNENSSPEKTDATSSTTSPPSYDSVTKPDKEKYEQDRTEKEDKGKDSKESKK
Chain of hNav1.3 (Q9NY46 whole entry, looked up): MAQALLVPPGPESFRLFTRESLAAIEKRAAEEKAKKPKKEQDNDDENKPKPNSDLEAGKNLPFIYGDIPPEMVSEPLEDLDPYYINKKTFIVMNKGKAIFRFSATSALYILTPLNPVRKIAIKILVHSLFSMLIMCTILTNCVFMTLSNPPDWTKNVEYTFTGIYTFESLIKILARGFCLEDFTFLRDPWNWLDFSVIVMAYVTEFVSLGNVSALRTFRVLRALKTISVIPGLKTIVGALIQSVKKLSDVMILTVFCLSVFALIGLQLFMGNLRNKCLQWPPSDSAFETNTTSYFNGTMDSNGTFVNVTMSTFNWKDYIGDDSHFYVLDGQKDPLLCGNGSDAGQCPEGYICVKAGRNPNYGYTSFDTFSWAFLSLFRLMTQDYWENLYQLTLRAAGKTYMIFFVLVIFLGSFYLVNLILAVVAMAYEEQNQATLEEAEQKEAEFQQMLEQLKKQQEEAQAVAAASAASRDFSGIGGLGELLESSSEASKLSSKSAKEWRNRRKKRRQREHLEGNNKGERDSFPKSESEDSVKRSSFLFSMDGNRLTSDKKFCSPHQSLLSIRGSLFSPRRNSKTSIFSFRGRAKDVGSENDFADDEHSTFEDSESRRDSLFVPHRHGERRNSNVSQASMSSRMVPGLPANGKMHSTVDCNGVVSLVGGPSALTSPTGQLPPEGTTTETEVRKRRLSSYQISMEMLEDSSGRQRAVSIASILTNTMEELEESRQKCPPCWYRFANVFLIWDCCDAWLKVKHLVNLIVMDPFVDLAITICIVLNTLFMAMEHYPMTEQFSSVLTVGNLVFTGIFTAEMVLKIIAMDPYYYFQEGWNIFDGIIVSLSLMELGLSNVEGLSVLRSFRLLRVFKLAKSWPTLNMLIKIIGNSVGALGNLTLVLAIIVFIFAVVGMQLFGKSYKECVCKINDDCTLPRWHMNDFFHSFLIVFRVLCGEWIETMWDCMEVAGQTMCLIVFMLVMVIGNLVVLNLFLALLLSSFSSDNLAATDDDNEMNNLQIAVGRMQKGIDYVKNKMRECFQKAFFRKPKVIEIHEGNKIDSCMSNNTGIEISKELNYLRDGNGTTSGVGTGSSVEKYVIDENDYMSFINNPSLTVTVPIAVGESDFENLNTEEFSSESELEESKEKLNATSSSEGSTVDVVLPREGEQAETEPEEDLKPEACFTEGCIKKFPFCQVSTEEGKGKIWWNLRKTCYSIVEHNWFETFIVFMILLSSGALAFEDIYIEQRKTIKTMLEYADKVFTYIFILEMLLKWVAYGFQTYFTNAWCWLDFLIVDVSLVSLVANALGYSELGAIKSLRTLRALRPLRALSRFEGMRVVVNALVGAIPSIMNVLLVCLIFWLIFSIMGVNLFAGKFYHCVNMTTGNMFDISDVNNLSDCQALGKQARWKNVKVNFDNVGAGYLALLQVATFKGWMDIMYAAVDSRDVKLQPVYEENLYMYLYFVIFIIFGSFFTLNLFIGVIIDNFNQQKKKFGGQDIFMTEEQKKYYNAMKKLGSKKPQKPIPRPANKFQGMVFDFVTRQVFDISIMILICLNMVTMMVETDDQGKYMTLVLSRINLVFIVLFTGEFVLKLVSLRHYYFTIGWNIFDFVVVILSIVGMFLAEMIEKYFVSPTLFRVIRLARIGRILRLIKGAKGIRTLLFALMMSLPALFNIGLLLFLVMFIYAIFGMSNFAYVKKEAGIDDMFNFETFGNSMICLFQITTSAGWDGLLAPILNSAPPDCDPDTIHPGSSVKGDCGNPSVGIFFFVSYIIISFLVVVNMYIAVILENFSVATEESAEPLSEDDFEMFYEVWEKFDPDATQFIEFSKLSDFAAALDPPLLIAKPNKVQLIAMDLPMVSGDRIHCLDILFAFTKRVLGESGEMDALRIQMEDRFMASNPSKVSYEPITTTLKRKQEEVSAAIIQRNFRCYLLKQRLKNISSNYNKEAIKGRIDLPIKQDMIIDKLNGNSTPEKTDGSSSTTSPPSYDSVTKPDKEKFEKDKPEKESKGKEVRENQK

Consider `CC[C@H](C)[C@@H]1NC(=O)[C@@H]2CSSC[C@@H]3NC(=O)[C@H](C(C)C)NC(=O)[C@H](CC(C)C)NC(=O)[C@H](CC(N)=O)NC(=O)[C@@H]4CCCN4C(=O)[C@H](CCCNC(=N)N)NC(=O)[C@H](CSSC[C@H](NC(=O)[C@@H](N)CC(=O)O)C(=O)N[C@@H](CC(C)C)C(=O)NCC(=O)N[C@@H](C)C(=O)N[C@@H](CCSC)C(=O)N[C@@H](CCCNC(=N)N)C(=O)N[C@@H](CCCCN)C(=O)N2)NC(=O)[C@H](CSSC[C@@H](C(=O)N[C@@H](CCCCN)C(=O)N[C@@H](Cc2ccc(O)cc2)C(=O)N[C@@H](C)C(=O)N[C@@H](Cc2ccccc2)C(N)=O)NC(=O)[C@H](Cc2c[nH]c4ccccc24)NC(=O)[C@H](CCCCN)NC(=O)[C@H](Cc2c[nH]cn2)NC(=O)[C@H]([C@@H](C)O)NC(=O)[C@H](CCCNC(=N)N)NC(=O)[C@H](CO)NC3=O)NC(=O)[C@H](CCCCN)NC(=O)[C@H](CC(=O)O)NC(=O)[C@H](CC(N)=O)NC(=O)[C@H](CC(=O)O)NC(=O)[C@@H]2CCCN2C1=O` [compound 426] (H-DCLGAMRKCIPDNDKCCRPNLVCSRTHKWCKYAF-NH2; disulfide 2-17, 9-23, 16-30), for which the IC50 is more than 5 µM at hNav1.5, 1.58 µM on hNav1.3 and 0.58 µM on hNav1.7.
For `CC[C@H](C)[C@@H]1NC(=O)[C@@H]2CSSC[C@@H]3NC(=O)[C@H](C(C)C)NC(=O)[C@H](CC(C)C)NC(=O)[C@H](CC(N)=O)NC(=O)[C@@H]4CCCN4C(=O)[C@H](CCCNC(=N)N)NC(=O)[C@H](CSSC[C@H](NC(=O)[C@@H](N)CC(=O)O)C(=O)N[C@@H](CC(C)C)C(=O)NCC(=O)N[C@@H](C)C(=O)N[C@@H](CCSC)C(=O)N[C@@H](CCCNC(=N)N)C(=O)N[C@@H](CCCCN)C(=O)N2)NC(=O)[C@H](CSSC[C@@H](C(=O)N[C@@H](CCCCN)C(=O)N[C@@H](Cc2ccc(O)cc2)C(=O)N[C@H](C(=O)N[C@@H](Cc2ccccc2)C(N)=O)C(C)C)NC(=O)[C@H](Cc2c[nH]c4ccccc24)NC(=O)[C@H](CCCCN)NC(=O)[C@H](Cc2c[nH]cn2)NC(=O)[C@H]([C@@H](C)O)NC(=O)[C@H](CCCNC(=N)N)NC(=O)[C@H](CO)NC3=O)NC(=O)[C@H](CCCCN)NC(=O)[C@H](CC(=O)O)NC(=O)[C@H](Cc2cccc3ccccc23)NC(=O)[C@H](CC(=O)O)NC(=O)[C@@H]2CCCN2C1=O` [compound 427] (H-DCLGAMRKCIPD[1Nal]DKCCRPNLVCSRTHKWCKYVF-NH2; disulfide 2-17, 9-23, 16-30) the same measures were more than 5 µM, 1.18 µM and 0.65 µM.
Regarding `CC[C@H](C)[C@@H]1NC(=O)[C@@H]2CSSC[C@@H]3NC(=O)[C@H](C(C)C)NC(=O)[C@H](CC(C)C)NC(=O)[C@H](CC(N)=O)NC(=O)[C@@H]4CCCN4C(=O)[C@H](CCCNC(=N)N)NC(=O)[C@H](CSSC[C@H](NC(=O)[C@@H](N)CC(=O)O)C(=O)N[C@@H](CC(C)C)C(=O)NCC(=O)N[C@@H](C)C(=O)N[C@@H](CCSC)C(=O)N[C@@H](CCCNC(=N)N)C(=O)N[C@@H](CCCCN)C(=O)N2)NC(=O)[C@H](CSSC[C@@H](C(=O)N[C@@H](CCCCN)C(=O)N[C@@H](Cc2ccc(O)cc2)C(=O)N[C@H](C(=O)N[C@@H](Cc2ccccc2)C(N)=O)C(C)C)NC(=O)[C@H](Cc2c[nH]c4ccccc24)NC(=O)[C@H](CCCCN)NC(=O)[C@H](Cc2c[nH]cn2)NC(=O)[C@H]([C@@H](C)O)NC(=O)[C@H](CCCNC(=N)N)NC(=O)[C@H](CO)NC3=O)NC(=O)[C@H](CCCCN)NC(=O)[C@H](CC(=O)O)NC(=O)[C@H](Cc2c[nH]c3ccccc23)NC(=O)[C@H](CC(=O)O)NC(=O)[C@@H]2CCCN2C1=O` [compound 428] (H-DCLGAMRKCIPDWDKCCRPNLVCSRTHKWCKYVF-NH2; disulfide 2-17, 9-23, 16-30), the IC50 on hNav1.5 was more than 5 µM; on hNav1.3 it was 1.1 µM; at hNav1.7 it was 0.67 µM.
For `CC[C@H](C)[C@@H]1NC(=O)[C@@H]2CSSC[C@@H]3NC(=O)[C@H](C(C)C)NC(=O)[C@H](CC(C)C)NC(=O)[C@H](CC(N)=O)NC(=O)[C@@H]4CCCN4C(=O)[C@H](CCCNC(=N)N)NC(=O)[C@H](CSSC[C@H](NC(=O)[C@@H](N)CC(=O)O)C(=O)N[C@@H](CC(C)C)C(=O)N[C@@H](CCC(=O)O)C(=O)N[C@@H](C)C(=O)N[C@@H](CCSC)C(=O)N[C@@H](CCCNC(=N)N)C(=O)N[C@@H](CCCCN)C(=O)N2)NC(=O)[C@H](CSSC[C@@H](C(=O)N[C@@H](CCCCN)C(=O)N[C@@H](Cc2ccc(O)cc2)C(=O)N[C@H](C(=O)N[C@@H](Cc2ccccc2)C(N)=O)C(C)C)NC(=O)[C@H](Cc2c[nH]c4ccccc24)NC(=O)[C@H](CCCCN)NC(=O)[C@H](Cc2c[nH]cn2)NC(=O)[C@H]([C@@H](C)O)NC(=O)[C@H](CCCNC(=N)N)NC(=O)[C@H](CO)NC3=O)NC(=O)[C@H](CCCCN)NC(=O)[C@H](CC(=O)O)NC(=O)[C@H](CC(N)=O)NC(=O)[C@H](CC(=O)O)NC(=O)[C@@H]2CCCN2C1=O` [compound 429] (H-DCLEAMRKCIPDNDKCCRPNLVCSRTHKWCKYVF-NH2; disulfide 2-17, 9-23, 16-30) the same measures were more than 5 µM, 3.99 µM and 4.64 µM.
The matching figures for `CC[C@H](C)[C@@H]1NC(=O)[C@@H]2CSSC[C@@H]3NC(=O)[C@H](C(C)C)NC(=O)[C@H](CC(C)C)NC(=O)[C@H](CC(N)=O)NC(=O)[C@@H]4CCCN4C(=O)[C@H](CCCNC(=N)N)NC(=O)[C@H](CSSC[C@H](NC(=O)[C@@H](N)CC(=O)O)C(=O)N[C@@H](CC(C)C)C(=O)NCC(=O)N[C@@H](C)C(=O)N[C@@H](CCSC)C(=O)N[C@@H](CCCNC(=N)N)C(=O)N[C@@H](CCCCN)C(=O)N2)NC(=O)[C@H](CSSC[C@@H](C(=O)N[C@@H](CCCCN)C(=O)N[C@@H](Cc2ccc(O)cc2)C(=O)N[C@H](C(=O)N[C@@H](CCC(=O)O)C(N)=O)C(C)C)NC(=O)[C@H](Cc2c[nH]c4ccccc24)NC(=O)[C@H](CCCCN)NC(=O)[C@H](Cc2c[nH]cn2)NC(=O)[C@H]([C@@H](C)O)NC(=O)[C@H](CCCNC(=N)N)NC(=O)[C@H](CO)NC3=O)NC(=O)[C@H](CCCCN)NC(=O)[C@H](CC(=O)O)NC(=O)[C@H](CC(N)=O)NC(=O)[C@H](CC(=O)O)NC(=O)[C@@H]2CCCN2C1=O` [compound 430] (H-DCLGAMRKCIPDNDKCCRPNLVCSRTHKWCKYVE-NH2; disulfide 2-17, 9-23, 16-30): more than 5 µM, more than 5 µM and more than 5 µM.
For `CC[C@H](C)[C@@H]1NC(=O)[C@@H]2CSSC[C@@H]3NC(=O)[C@H](C(C)C)NC(=O)[C@H](CC(C)C)NC(=O)[C@H](CC(N)=O)NC(=O)[C@@H]4CCCN4C(=O)[C@H](CCCNC(=N)N)NC(=O)[C@H](CSSC[C@H](NC(=O)[C@@H](N)CC(=O)O)C(=O)N[C@@H](CC(C)C)C(=O)NCC(=O)N[C@@H](C)C(=O)N[C@@H](CCSC)C(=O)N[C@@H](CCCNC(=N)N)C(=O)N[C@@H](CCCCN)C(=O)N2)NC(=O)[C@H](CSSC[C@@H](C(=O)N[C@@H](CCCCN)C(=O)N[C@@H](Cc2ccc(O)cc2)C(=O)N[C@H](C(=O)N[C@@H](C)C(N)=O)C(C)C)NC(=O)[C@H](Cc2c[nH]c4ccccc24)NC(=O)[C@H](CCCCN)NC(=O)[C@H](Cc2c[nH]cn2)NC(=O)[C@H]([C@@H](C)O)NC(=O)[C@H](CCCNC(=N)N)NC(=O)[C@H](CO)NC3=O)NC(=O)[C@H](CCCCN)NC(=O)[C@H](CC(=O)O)NC(=O)[C@H](CC(N)=O)NC(=O)[C@H](CC(=O)O)NC(=O)[C@@H]2CCCN2C1=O` [compound 431] (H-DCLGAMRKCIPDNDKCCRPNLVCSRTHKWCKYVA-NH2; disulfide 2-17, 9-23, 16-30) the same measures were more than 5 µM, more than 5 µM and more than 5 µM.
With `CC[C@H](C)[C@@H]1NC(=O)[C@@H]2CSSC[C@@H]3NC(=O)[C@H](C(C)C)NC(=O)[C@H](CC(C)C)NC(=O)[C@H](CC(N)=O)NC(=O)[C@@H]4CCCN4C(=O)[C@H](CCCNC(=N)N)NC(=O)[C@H](CSSC[C@H](NC(=O)[C@@H](N)CC(=O)O)C(=O)N[C@@H](CC(C)C)C(=O)NCC(=O)N[C@@H](C)C(=O)N[C@@H](CCSC)C(=O)N[C@@H](CCCNC(=N)N)C(=O)N[C@@H](CCCCN)C(=O)N2)NC(=O)[C@H](CSSC[C@@H](C(=O)N[C@@H](CCCCN)C(=O)N[C@@H](C)C(=O)N[C@H](C(=O)N[C@@H](Cc2ccccc2)C(N)=O)C(C)C)NC(=O)[C@H](Cc2c[nH]c4ccccc24)NC(=O)[C@H](CCCCN)NC(=O)[C@H](Cc2c[nH]cn2)NC(=O)[C@H]([C@@H](C)O)NC(=O)[C@H](CCCNC(=N)N)NC(=O)[C@H](CO)NC3=O)NC(=O)[C@H](CCCCN)NC(=O)[C@H](CC(=O)O)NC(=O)[C@H](CC(N)=O)NC(=O)[C@H](CC(=O)O)NC(=O)[C@@H]2CCCN2C1=O` [compound 432] (H-DCLGAMRKCIPDNDKCCRPNLVCSRTHKWCKAVF-NH2; disulfide 2-17, 9-23, 16-30), the IC50 at hNav1.5, on hNav1.3 and at hNav1.7 was more than 5 µM in each case.
For the compound `CC[C@H](C)[C@@H]1NC(=O)[C@@H]2CSSC[C@@H]3NC(=O)[C@H](C(C)C)NC(=O)[C@H](CC(C)C)NC(=O)[C@H](CC(N)=O)NC(=O)[C@@H]4CCCN4C(=O)[C@H](CCCNC(=N)N)NC(=O)[C@H](CSSC[C@H](NC(=O)[C@@H](N)CC(=O)O)C(=O)N[C@@H](CC(C)C)C(=O)NCC(=O)N[C@@H](C)C(=O)N[C@@H](CCSC)C(=O)N[C@@H](CCCNC(=N)N)C(=O)N[C@@H](CCCCN)C(=O)N2)NC(=O)[C@H](CSSC[C@@H](C(=O)N[C@@H](C)C(=O)N[C@@H](Cc2ccc(O)cc2)C(=O)N[C@H](C(=O)N[C@@H](Cc2ccccc2)C(N)=O)C(C)C)NC(=O)[C@H](Cc2c[nH]c4ccccc24)NC(=O)[C@H](CCCCN)NC(=O)[C@H](Cc2c[nH]cn2)NC(=O)[C@H]([C@@H](C)O)NC(=O)[C@H](CCCNC(=N)N)NC(=O)[C@H](CO)NC3=O)NC(=O)[C@H](CCCCN)NC(=O)[C@H](CC(=O)O)NC(=O)[C@H](CC(N)=O)NC(=O)[C@H](CC(=O)O)NC(=O)[C@@H]2CCCN2C1=O` [compound 433] (H-DCLGAMRKCIPDNDKCCRPNLVCSRTHKWCAYVF-NH2; disulfide 2-17, 9-23, 16-30), the IC50 on hNav1.5, at hNav1.3 and at hNav1.7 was more than 5 µM each time.
